Test results: US20180000768A1, “INTESTINAL FXR AGONISM ENHANCES GLP-1 SIGNALING TO RESTORE PANCREATIC BETA CELL FUNCTIONS” (Salk Institute for Biological Studies, priority 2015, published 2018)
“Also recorded” adds a separate entry of the source.

What was measured:
[1] = system: Human intestinal L cells; assay: maintenance of ATP levels under bethanechol chloride; assay type: cell-based; conditions: L cells incubated with bethanechol chloride; DMSO-treated L cells 67%
Description: To further examine how this increase in respiratory capacity affects L cell bioenergetics, the maintenance of ATP levels under energetic demanding conditions was evaluated. Human intestinal L cells treated with DMSO or Fex were incubated with the muscarinic receptor agonist bethanechol chloride and residual ATP levels determined. […] Fex-treated L cells were able to maintain 83% of the initial ATP abundance whereas DMSO-treated L cells were able to maintain 67% (FIG. 7D). Thus, Fex enhances overall mitochondrial bioenergetics in enteroendocrinal L cells.

[2] = system: human intestinal epithelial Caco2 cells; assay: in vitro permeability in Caco2 cells; conditions: Caco2 cells, 2 hour incubation
[3] = in vitro permeability in Caco2 cells; conditions: human; for Papp A→B at 2 h, 10 μM: Caco2 cells, assay conc. 10 μM
[4] = system: Leptin-deficient ob/ob mice; assay: metabolic phenotype and glucose homeostasis of treated ob/ob mice; assay type: in vivo, mouse
Description: Leptin-deficient ob/ob mice were purchased from Jackson laboratory (stock no. 000632). Each mouse consumed 100 mg per kg of body weight Fex (in corn oil) per day by oral gavage for 5 weeks. For in vivo analog study, each mouse consumed 50 mg per kg of body weight Fex-D (in corn oil) per day by oral gavage for 14 days. For GLP-1 receptor antagonist study, each mouse was daily treated with 100 μg per kg of body weight Exendin 9-39 amide (Abcam) via intraperitoneal injection for 2 weeks. For INT-777 study, each mouse was daily gavaged with 60 mg per kg of body weight INT-777 (in corn oil) for 5 weeks. For FGF15 study, each mouse was daily treated with 0.25 mg per kg of body weight FGF15 (in PBS with 0.1% BSA) via intravenous injection for 2 weeks. The sample sizes for all animal studies are indicated in each figure legend. All mice were housed in a specific pathogen-free facility with a 12-h light, 12-h dark cycle and given free access to food and water. All in vivo data were retrieved from 3 independent experimental animal cohorts. Core body temperature was measured with a clinical rectal thermometer (Thermalert model TH-5; Physitemp). For GTTs, 6-h fasted mice received 2 g of glucose per kg of body weight by oral gavage. Human insulin (Humilin, Eli Lilly) was used for insulin sensitivity test. Tail blood was drawn at indicated time intervals, and blood glucose level was measured with a One Touch Ultra glucometer (LifeScan). Body composition was measured with Echo MRI-100 body composition analyzer (Echo Medical Systems). All mice were randomly assigned to experimental groups for further analysis. No samples were excluded from the analysis.
Real-time metabolic analyses were conducted in a Comprehensive Lab Animal Monitoring System (Columbus Instruments). CO2 production, O2 consumption, RQ (relative rates of carbohydrate versus fat oxidation) and ambulatory counts were determined for 4 consecutive days and nights, with at least 24-h for adaptation before data recording.
To investigate the effect of Fex treatment in a diabetic mouse model, leptin-deficient obese mice (ob/ob) were subjected to daily treatment by oral gavage (100 mg/kg) for 5 weeks. […] Gene expression analysis confirmed the induction of UCP1 as well as a number of genes involved in β-oxidation, thermogenesis and oxidative phosphorylation (FIG. 1B-1D).

[5] = system: NCI-H716 cells; assay: Extracellular oxygen consumption rate assay (Seahorse XF96); assay type: cell-based, human
Description: Briefly, NCI-H716 cells were seeded in XF 96-well cell culture microplates (Seahorse Bioscience) at 6.0×10^4 cells per well in 150 μl of growth medium and then incubated at 37° C./5% CO2 for 24 hr. A Seahorse Bioscience instrument model XF96 was used to measure the rate of change of dissolved oxygen in the media surrounding the cells. All procedures followed manufacturer's instructions. […] Conversely, treatment with the FXR antagonist guggulsterone reduced basal respiratory rates and the FCCP-induced maximum respiration rate (FIGS. 9A and 9B). To examine the effects of FXR activity on the secretion of GLP-1, the metabolic changes induced in human L cells was measured after treatment with the FXR agonist, fexaramine and an FXR antagonist, guggulsterone. Treatment of L cells with fexaramine (1 μM for 24 hours) lead to an increase in the oxygen consumption rate (OCR), consistent with increased mitochondrial activity and consequently, an increased energetic state (FIG. 9A). The reverse effect was seen after treatment with the FXR antagonist, guggulsterone, with lower OCR after drug treatment.

[6] = system: ob/ob mice; assay: gene expression (RNA-Seq, QPCR) in tissues of treated ob/ob mice; assay type: in vivo, mouse
Description: Total RNA was isolated from cell pellets treated with RNAlater using the RNA mini kit (Qiagen) and treated with DNaseI (Qiagen) for 30 minutes at room temperature. Sequencing libraries were prepared from 100-500 ng total RNA using the TruSeq RNA Sample Preparation Kit v2 (Illumina) according to the manufacturer's protocol. Briefly, mRNA was purified, fragmented, and used for first-, then second-strand cDNA synthesis followed by adenylation of 3′ ends. Samples were ligated to unique adapters and subjected to PCR amplification. Mulitplexed libraries were then validated using the 2100 BioAnalyzer (Agilent), normalized, and pooled for sequencing. RNA-Seq libraries prepared from two biological replicates for each experimental condition were sequenced on the Illumina HiSeq 2500 using bar-coded multiplexing and a 100 bp read length.
Image analysis and base calling were performed with Illumina CASAVA-1.8.2. This yielded a median of 29.9M usable reads per sample. Short read sequences were mapped to a UCSC mm9 reference sequence using the RNA-seq aligner STAR. Known splice junctions from mm9 were supplied to the aligner and de novo junction discovery was also permitted. Differential gene expression analysis, statistical testing and annotation were performed using Cuffdiff 2. Transcript expression was calculated as gene-level relative abundance in fragments per kilobase of exon model per million mapped fragments and employed correction for transcript abundance bias. RNA-Seq results for genes of interest were also explored visually using the UCSC Genome Browser.

[7] = system: Leptin-deficient ob/ob mice; assay: metabolic phenotype and glucose homeostasis of treated ob/ob mice; assay type: in vivo, mouse; conditions: Fex 100 mg/kg/day, reduced treatment duration (2 weeks)
[8] = Fex 100 mg/kg daily oral gavage, 5 weeks
[9] = Fex 100 mg/kg daily oral gavage, 5 weeks, after 4 hour fast

in vitro permeability [2]: low
Papp B→A at 2 h, 10 μM ([3]; Caco-2): 0.77 ×10⁻⁶ cm/s
recovery at 2 h, 10 μM ([3]; Caco-2): 150%
Papp A→B at 2 h, 10 μM ([3]; Caco-2, A-B Permeability Ranking): < 1 ×10⁻⁶ cm/s
Papp A→B at 2 h, 10 μM ([3]; Caco-2, Mean Papp, A-B, 2 hour incubation): 0.597 ×10⁻⁶ cm/s
SMILES: COC(=O)/C=C/c1cccc(N(Cc2ccc(-c3ccc(N(C)C)cc3)cc2)C(=O)C2CCCCC2)c1 [Fexaramine]
residual ATP, % of the initial ATP abundance maintained [1]: 83%
core temperature [4, 8]: increase
glucose tolerance [4, 8]: improved
gonadal fat (gWAT) tissue weight [4, 8]: modestly but significantly reduced
hepatic gluconeogenesis/lipogenesis [4, 8]: remarkably suppressed
insulin sensitivity [4, 8]: improved
proportion of M2 macrophages in gWAT [4, 8]: increasing
glucose levels [4, 9]: reduced
insulin levels [4, 9]: reduced
respiratory exchange ratio in the dark period ([4]; Fex 100 mg/kg daily oral gavage, 5 weeks, metabolic cages): increased
time serum glucose levels remained low after cessation of treatment ([4]; monitored for 4 weeks after Fex treatment was stopped): 3 weeks
maximum respiration rate induced by FCCP ([5]; L cells, Fex 1 μM for 24 hr, vehicle-treated L cells 130%): 155%
oxygen consumption rate (OCR) ([5]; human L cells, 24 hours, fexaramine 1 μM, guggulsterone 10 μM): increase
FXR target genes SHP and FGF15 in the intestine ([6]; Fex 100 mg/kg daily P.O., 5 weeks, ileum): markedly upregulated
expression of the GLP-1 receptor in islets ([6]; Fex 100 mg/kg for 5 weeks, listed as Fex): increased expression; also recorded: significantly increased
fasting glucose levels [7]: little effect
